The values that follow come from patent US20070078174A1 (priority 2005, published 2007).

The nature of data set [1]: clinical. The conditions noted are these: human, plasma, other: sublingual and oral. As for the experimental part:
Two groups were randomized and there was a one week washout period between administrations. The volunteers were in the fasted state when the drugs were administered. […] The oral formulation was administered with a glass of water. […] The samples were blinded from the analysts. […]

Data set [2] is described as follows: clinical. The following applies: male, human, plasma.
Protocol: The study was a randomized open label study with a four period comparative crossover study. […] The blood samples were taken at “0” hour (pre-dosing), 10 min, 20 min, 40 min, 1.0.
The study contained twelve (12) male subjects aged 18-55 years. […] However the available pharmacokinetic data from all twelve (12) subjects was included in the statistical analysis, as required by the study protocol.
The study administered the single dosages in four different forms.
For data set [3] the following is noted: cited from earlier work.

One may read the half-life as the time needed for the level to fall by half in the phase considered. Low values mean rapid decline, high ones slow decline.

Structures can show the parent of a compound that is named as a salt.

With `Clc1ccc2nsnc2c1NC1=NCCN1` [tizanidine, Tizanidine hydrochloride], the half-life in the data set “clinical [1]” and in “clinical [2]” was 1.5 to 1.7 h in each case. Besides, in data set [3] (administered orally, extensive hepatic first pass metabolism), the absolute bioavailability entry is given as “about 40%”. Besides, the bioavailability in data set [3] (lowered by first-pass hepatic metabolism) is 22-40%. In data set [3] (reported), the terminal half life is 2.5 h.
